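Following 48 hours of exposure in 96-well plates, responses at five concentrations were used to interpolate endpoints linearly. Here, GI50 denotes the concentration required for 50% inhibition of growth. TGI denotes the concentration required for complete inhibition of growth.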
How the values were obtained:
Test in all cases: inhibition of tumour cell growth, NCI panel, 48 h
SNB-78 CNS = system: SNB-78 CNS
U251 CNS = system: U251 CNS
K-562 leukemia = system: K-562 leukemia
SF-539 CNS = system: SF-539 CNS
HCT-15 colon = system: HCT-15 colon
NCI-H226 lung = system: NCI-H226 lung
MCF7 breast = system: MCF7 breast
EKVX NSCLC = system: EKVX NSCLC
NCI-H460 lung = system: NCI-H460 lung
OVCAR-5 ovarian = system: OVCAR-5 ovarian
BT-549 breast = system: BT-549 breast
DU-145 prostate = system: DU-145 prostate
T-47D breast = system: T-47D breast

Structure (SMILES) | TGI (SNB-78 CNS) [µM] | TGI (U251 CNS) [µM] | TGI (K-562 leukemia) [µM] | TGI (SF-539 CNS) [µM] | TGI (HCT-15 colon) [µM] | TGI (NCI-H226 lung) [µM] | TGI (MCF7 breast) [µM] | TGI (EKVX NSCLC) [µM] | TGI (NCI-H460 lung) [µM] | TGI (OVCAR-5 ovarian) [µM] | TGI (BT-549 breast) [µM] | TGI (DU-145 prostate) [µM] | TGI (T-47D breast) [µM] | GI50 (K-562 leukemia) [µM] | GI50 (BT-549 breast) [µM] | GI50 (HCT-15 colon) [µM] | GI50 (NCI-H226 lung) [µM] | GI50 (EKVX NSCLC) [µM] | GI50 (T-47D breast) [µM] | GI50 (OVCAR-5 ovarian) [µM]
c1ccc(C(c2ccccc2)[P+](c2ccccc2)(c2ccccc2)c2ccccc2)cc1 | 12.9 | 12.1 | 10.1 | 6.31 | 17.9 | 6.03 | 11.9 | 50.4 | 11.5 | 13.3 | – | – | – | – | – | – | – | – | – | –
C=CCOC1OC(CS(=O)(=O)O)C(O)C(O)C1O (stereo not given) | – | > 100 | > 100 | – | > 100 | > 100 | > 100 | – | > 100 | > 100 | > 100 | > 100 | > 100 | – | – | – | – | – | – | –
O=C(O)CSCC(=O)O | – | > 100 | > 100 | – | > 100 | > 100 | – | > 100 | > 100 | > 100 | > 100 | > 100 | – | – | – | – | – | – | – | –
COc1cc(-c2c(C#N)c(N)c(C#N)c3c2COc2ccccc2-3)cc(OC)c1OC | – | 34.4 | > 100 | 19.9 | > 100 | 59.4 | > 100 | > 69.4 | > 100 | > 100 | > 75.4 | > 100 | > 100 | – | – | – | – | – | – | –
CS/C(=N\C(=S)Nc1ccccc1)Nc1ccccc1 | > 100 | > 100 | > 100 | – | 58.1 | 70.5 | – | – | 48.7 | 77.3 | – | – | – | – | – | – | – | – | – | –
COc1ccc(C2C(=O)C(Cl)N2Nc2nc(C)cc(=O)[nH]2)cc1OC (stereo not given) | > 100 | > 100 | > 100 | 85.5 | > 100 | – | – | > 100 | > 100 | > 100 | – | – | – | – | – | – | – | – | – | –
FC(F)(F)C(C1=NC(C(F)(F)F)(C(F)(F)F)N=C(N2CCOCC2)O1)C(F)(F)F | – | > 100 | – | 97.3 | > 100 | – | – | 61.3 | > 100 | 46.4 | 56 | > 100 | 89.4 | – | – | – | – | – | – | –
CCCCCCCCCCCCCCCC[N+](C)(C)CCN(Cc1ccc(OC)cc1)c1ncccn1 | – | – | > 100 | – | 60.1 | 14 | – | 7.52 | – | 4.62 | 5.83 | – | 2.98 | 0.838 | 2.43 | 18.6 | 2.77 | 1.89 | 1.28 | 1.91
COc1ccccc1N1C(Cl)C(=O)C1c1c[nH]c2ccccc12 (stereo not given) | – | > 100 | > 100 | > 100 | – | – | – | > 100 | > 100 | > 100 | – | – | – | – | – | – | – | – | – | –

— PubChem BioAssay (NCI)
